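Briefly, cells in 96-well plates were exposed to five compound concentrations for 48 h, and endpoints were estimated by linear interpolation. TGI: total growth inhibition.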
Legend:
Assay in all cases: DTP human tumour cell line panel, 48 h
786-0 renal = test system: 786-0 renal
A498 renal = test system: A498 renal
A549 NSCLC = test system: A549 NSCLC
ACHN renal = test system: ACHN renal
CAKI-1 renal = test system: CAKI-1 renal
CCRF-CEM leukemia = test system: CCRF-CEM leukemia
COLO 205 colon = test system: COLO 205 colon
DLD-1 colon = test system: DLD-1 colon
DMS 114 small cell lung = test system: DMS 114 small cell lung
DMS 273 small cell lung = test system: DMS 273 small cell lung
EKVX NSCLC = test system: EKVX NSCLC
HCC-2998 colon = test system: HCC-2998 colon
HCT-116 colon = test system: HCT-116 colon
HCT-15 colon = test system: HCT-15 colon
HL-60(TB) leukemia = test system: HL-60(TB) leukemia
HOP-18 NSCLC = test system: HOP-18 NSCLC
HOP-62 NSCLC = test system: HOP-62 NSCLC
HOP-92 NSCLC = test system: HOP-92 NSCLC
HT29 colon = test system: HT29 colon
IGROV1 ovarian = test system: IGROV1 ovarian
K-562 leukemia = test system: K-562 leukemia
KM12 colon = test system: KM12 colon
KM20L2 colon = test system: KM20L2 colon
LOX IMVI melanoma = test system: LOX IMVI melanoma
LXFL 529 NSCLC = test system: LXFL 529 NSCLC
M14 melanoma = test system: M14 melanoma
M19-MEL melanoma = test system: M19-MEL melanoma
MALME-3M melanoma = test system: MALME-3M melanoma
MOLT-4 leukemia = test system: MOLT-4 leukemia
NCI-H226 lung = test system: NCI-H226 lung
NCI-H23 lung = test system: NCI-H23 lung
NCI-H460 lung = test system: NCI-H460 lung
NCI-H522 lung = test system: NCI-H522 lung
OVCAR-3 ovarian = test system: OVCAR-3 ovarian
OVCAR-4 ovarian = test system: OVCAR-4 ovarian
OVCAR-5 ovarian = test system: OVCAR-5 ovarian
OVCAR-8 ovarian = test system: OVCAR-8 ovarian
RPMI-8226 leukemia = test system: RPMI-8226 leukemia
RXF 393 renal = test system: RXF 393 renal
RXF-631 renal = test system: RXF-631 renal
SF-268 CNS = test system: SF-268 CNS
SF-295 CNS = test system: SF-295 CNS
SF-539 CNS = test system: SF-539 CNS
SK-MEL-2 melanoma = test system: SK-MEL-2 melanoma
SK-MEL-28 melanoma = test system: SK-MEL-28 melanoma
SK-MEL-5 melanoma = test system: SK-MEL-5 melanoma
SK-OV-3 ovarian = test system: SK-OV-3 ovarian
SN12C renal = test system: SN12C renal
SNB-19 CNS = test system: SNB-19 CNS
SNB-75 CNS = test system: SNB-75 CNS
SNB-78 CNS = test system: SNB-78 CNS
SR leukemia = test system: SR leukemia
SW-620 colon = test system: SW-620 colon
TK-10 renal = test system: TK-10 renal
U251 CNS = test system: U251 CNS
UACC-257 melanoma = test system: UACC-257 melanoma
UACC-62 melanoma = test system: UACC-62 melanoma
UO-31 renal = test system: UO-31 renal
XF 498 CNS = test system: XF 498 CNS

Measured: TGI

O=C(CCC(=O)Nc1ccc(Cl)cc1)CC(=O)c1ccc2ccccc2c1
not listed: XF 498 CNS
> 100 µM: all other assays above

CC(=O)n1nnc2ccc([N+](=O)[O-])cc21
not listed: A498 renal | HCC-2998 colon | HCT-15 colon | RXF-631 renal
> 100 µM: all other assays above

Source: PubChem BioAssay (NCI)
